{
  "source": "patent US8183284B2",
  "about": "“Compositions for reducing the incidence of drug induced arrhythmia” (Warner Chilcott Company, LLC, priority 2005, dated 2012)",
  "test": "Clinical trials of oral azimilide: incidence of torsades de pointes (TdP)",
  "type": "in vivo, patients",
  "description": "Clinical trials are conducted where 5375 patients receive oral doses of azimilide. Patients are administered azimilide using a 3-day, twice daily loading regimen of 150-250 mg/day followed by a daily maintenance regimen (75-125 mg/day) of ½ of the loading dose, or are given daily azimilide (75, 100 or 125 mg/day) without a loading regimen. Overall about 75% of the patients are men and about 25% are women. Two cases of TdP are found in placebo-assigned patients and 54 azimilide-associated cases of TdP. Lack of aspirin use or lack of statin use is more frequent in azimilide patients with TdP. A total of 1191 (22%) patients (243 [16%] females and 948 [25%] males) are taking statins and aspirin as concomitant medication. Among the 54 patients (30 females and 24 males) who experienced TdP, 35% are on aspirin, 20% are on statins and only 11% are taking both a statin and aspirin as concomitant medication.",
  "data": [
    {"smiles": "CN1CCN(CCCCN2C(=O)CN(/N=C/c3ccc(-c4ccc(Cl)cc4)o3)C2=O)CC1", "note": "[azimilide]", "values": [
      {"measurement": "azimilide-associated cases of TdP", "setting": "5375 patients receiving oral azimilide 75-125 mg/day, with or without 3-day loading regimen of 150-250 mg/day", "value": 54, "unit": "cases"},
      {"measurement": "share of patients who experienced TdP that are on aspirin", "setting": "among the 54 patients (30 females, 24 males) who experienced TdP, concomitant aspirin", "value": 35, "unit": "%"},
      {"measurement": "share of patients who experienced TdP that are on statins", "setting": "among the 54 patients who experienced TdP, concomitant statins", "value": 20, "unit": "%"},
      {"measurement": "share of patients who experienced TdP that are taking both a statin and aspirin", "setting": "among the 54 patients who experienced TdP, overall 1191 (22%) of patients take statins and aspirin", "value": 11, "unit": "%"}
    ]}
  ]
}
